According to ChEMBL document CHEMBL4330075, “Discovery of Novel Quinoline-Chalcone Derivatives as Potent Antitumor Agents with Microtubule Polymerization Inhibitory Activity” (J Med Chem, 2019):
One block for each molecule: values may come before it. Calls of active or inactive are those of the source. No cut-off for these calls is given here.

How the values were obtained:
[1] = system: K562; assay: Antiproliferative activity against human K562 cells after 72 hrs by MTT assay; assay type: functional, cell-based; conditions: K562, 72 h
[2] = system: KB; assay: Antiproliferative activity against human KB cells after 72 hrs by MTT assay; assay type: functional, cell-based
[3] = system: HCT-8; assay: Antiproliferative activity against human HCT8 cells after 72 hrs by MTT assay; assay type: functional, cell-based; conditions: HCT-8, 72 h
[4] = system: MDA-MB-231; assay: Antiproliferative activity against human MDA-MB-231 cells after 72 hrs by MTT assay; assay type: functional, cell-based; conditions: MDA-MB-231, 72 h
[5] = system: HepG2; assay: cells; conditions: Homo sapiens, HepG2, 72 h
[6] = system: L02; assay: Cytotoxicity against human LO2 cells after 72 hrs by MTT assay; assay type: cell-based; conditions: L02, 72 h
[7] = Selectivity index, ratio of IC50 for human LO2 cells to IC50 for human HepG2 cells; assay type: toxicity; conditions: LO2 cells and HepG2 cells, read-out: Ratio IC50
[8] = system: K562; assay: Cell cycle arrest in human K562 cells assessed as decrease in cdc2 expression after 48 hrs by Western blot analysis; assay type: functional, cell-based
[9] = system: K562; assay: Cell cycle arrest in human K562 cells assessed as decrease in cyclin B1 expression after 48 hrs by Western blot analysis; assay type: functional, cell-based
[10] = target: T1, Tubulin (Sus scrofa) (UniProt P02554+P02550); assay: Inhibition of porcine brain tubulin polymerization measured every 2 mins for 60 mins by spectrophotometric analysis
[11] = target: T1, Tubulin (Sus scrofa); assay: Inhibition of [3H]colchicine binding to biotinylated porcine tubulin at 1 uM after 2 hrs by scintillation proximity assay relative to control; assay type: protein assay
[12] = target: T1, Tubulin (Sus scrofa); assay: Inhibition of [3H]colchicine binding to biotinylated porcine tubulin at 5 uM after 2 hrs by scintillation proximity assay relative to control; assay type: protein assay
[13] = system: K562; assay: Cell cycle arrest in human K562 cells assessed as decrease in cdc25c expression after 48 hrs by Western blot analysis; assay type: functional, cell-based
[14] = system: K562; assay: Induction of apoptosis in human K562 assessed as nuclear fragmentation at 5 to 20 nM after 48 hrs by Hoechst 33342 staining-based fluorescence microscopic analysis; assay type: functional, cell-based
[15] = system: K562; assay: Induction of apoptosis in human K562 assessed as chromatin condensation at 5 to 20 nM after 48 hrs by Hoechst 33342 staining-based fluorescence microscopic analysis; assay type: functional, cell-based
[16] = system: K562; assay: Induction of apoptosis in human K562 assessed as upregulation of Bad expression after 48 hrs by Western blot analysis; assay type: functional, cell-based
[17] = system: K562; assay: Induction of apoptosis in human K562 assessed as upregulation of Bax expression after 48 hrs by Western blot analysis; assay type: functional, cell-based
[18] = system: K562; assay: Induction of apoptosis in human K562 assessed as down regulation of Bcl-2 expression after 48 hrs by Western blot analysis; assay type: functional, cell-based
[19] = system: K562; assay: Induction of apoptosis in human K562 assessed as down regulation of Bcl-xl expression after 48 hrs by Western blot analysis; assay type: functional, cell-based
[20] = system: K562; assay: Induction of ROS generation in human K562 cells after 48 hrs by DCF-DA probe-based flow cytometric analysis; assay type: functional, cell-based
[21] = system: K562; assay: Induction of ROS generation in human K562 cells up to 20 nM after 48 hrs in presence of N-acetyl-cycteine by DCF-DA probe-based flow cytometric analysis; assay type: functional, cell-based
[22] = system: MDA-MB-231; assay: Antimigratory activity against human MDA-MB-231 cells after 48 hrs by transwell assay; assay type: functional, cell-based
[23] = system: MDA-MB-231; assay: Antiinvasive activity against human MDA-MB-231 cells after 48 hrs by crystal violet staining-based transwell assay; assay type: functional, cell-based
[24] = system: HUVEC; assay: Antimigratory activity against human HUVEC cells at 20 nM after 24 hrs by wound healing assay; assay type: functional, cell-based
[25] = system: HUVEC; assay: Inhibition of tube formation in human HUVEC cells at 5 to 20 nM after 6 hrs by tube formation assay; assay type: functional, cell-based
[26] = system: Homo sapiens; assay: Antitumor activity against […] H22 cells xenografted in ICR mouse assessed as reduction in tumor volume administered intravenously once daily for 21 consecutive days and measured every 2 days; assay type: functional
[27] = system: Homo sapiens; assay: Antivascular activity against […] H22 cells xenografted in ICR mouse assessed as decrease in tumor microvessel density at 20 mg/kg, iv qd […] every 2 days for 21 days by CD31/hematoxylin staining-based immunohistochemistry assay; assay type: functional, organism-based
[28] = system: Homo sapiens; assay: Antitumor activity against […] H22 cells xenografted in ICR mouse assessed as reduction in tumor weight administered intravenously once daily for 21 consecutive days and measured every 2 days; assay type: functional
[29] = system: Homo sapiens; assay: Antitumor activity against […] H22 cells xenografted in ICR mouse assessed as reduction in tumor volume at 20 mg/kg, iv qd for 21 consecutive days and measured every 2 days relative to control; assay type: functional, organism-based
[30] = target: Tubulin (Homo sapiens) (UniProt P68371+Q9H4B7+P0DPH7+P68366+Q13509+Q71U36+P04350+Q3ZCM7+P07437+P68363+Q9BQE3+Q6PEY2+Q13885+Q9BVA1+Q9BUF5); assay: Disruption of microtubule network in human K562 cells at 30 nM after 24 hrs by scanning confocal microscopic analysis

T1 sequence (P02550 whole entry, looked up): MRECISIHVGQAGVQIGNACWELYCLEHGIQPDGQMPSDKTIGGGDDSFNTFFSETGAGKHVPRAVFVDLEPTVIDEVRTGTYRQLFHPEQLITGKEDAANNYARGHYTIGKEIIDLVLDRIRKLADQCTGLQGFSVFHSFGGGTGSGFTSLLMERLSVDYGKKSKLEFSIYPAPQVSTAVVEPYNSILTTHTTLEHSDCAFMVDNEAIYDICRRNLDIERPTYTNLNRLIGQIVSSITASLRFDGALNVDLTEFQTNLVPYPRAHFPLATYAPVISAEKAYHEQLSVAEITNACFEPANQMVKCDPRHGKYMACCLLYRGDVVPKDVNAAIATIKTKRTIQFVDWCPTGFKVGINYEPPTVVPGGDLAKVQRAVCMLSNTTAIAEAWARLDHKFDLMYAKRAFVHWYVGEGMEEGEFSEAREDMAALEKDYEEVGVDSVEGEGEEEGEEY
T1 sequence (P02554 whole entry, looked up): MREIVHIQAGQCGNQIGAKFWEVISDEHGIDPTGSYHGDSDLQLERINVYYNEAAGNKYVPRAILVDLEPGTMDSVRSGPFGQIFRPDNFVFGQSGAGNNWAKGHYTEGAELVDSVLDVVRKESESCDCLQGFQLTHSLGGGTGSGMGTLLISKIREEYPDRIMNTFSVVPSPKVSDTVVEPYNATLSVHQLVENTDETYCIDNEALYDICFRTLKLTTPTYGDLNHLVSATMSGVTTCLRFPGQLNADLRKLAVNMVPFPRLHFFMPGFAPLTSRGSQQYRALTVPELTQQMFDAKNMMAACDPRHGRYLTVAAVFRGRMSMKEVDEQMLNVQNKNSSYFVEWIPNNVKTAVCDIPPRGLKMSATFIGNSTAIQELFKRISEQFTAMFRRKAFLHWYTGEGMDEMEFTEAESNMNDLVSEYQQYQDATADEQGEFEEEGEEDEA

IC50 [1]: 346 nM | IC50 [2]: 429 nM | IC50 [3]: 421 nM | IC50 [4]: 425 nM | IC50 [5]: 226 nM
Structure (SMILES): C/C(=C\c1ccc2[nH]ccc2c1)C(=O)c1cc(C)nc2ccccc12

IC50 [1]: 108 nM
Structure (SMILES): COc1ccc(/C=C(\C)C(=O)c2cc(C)nc3ccccc23)cc1

IC50 [1]: 18 nM | IC50 [2]: 29 nM | IC50 [3]: 40 nM | IC50 [4]: 43 nM | IC50 [5]: 27 nM
Structure (SMILES): CNc1cc(C(=O)/C(C)=C/c2ccc(OC)c(O)c2)c2ccccc2n1
IC50 [6]: 1090 nM | selectivity ratio [7]: 40.2

Structure (SMILES): COc1ccc(/C=C(\C)C(=O)c2cc(C)nc3ccccc23)cc1O
Activity [8]: Dose-dependent effect | Activity [9]: Dose-dependent effect | inhibition [10]: Dose-dependent effect | inhibition [11]: 79.4% | inhibition [12]: 92.7% | Activity [13]: Dose-dependent effect | Activity [14]: Active | Activity [15]: Active | Activity [16]: Dose-dependent effect | Activity [17]: Dose-dependent effect | Activity [18]: Dose-dependent effect | Activity [19]: Dose-dependent effect | Activity [20]: Dose-dependent effect | Activity [21]: inactive | Activity [22]: Dose-dependent effect | Activity [23]: Dose-dependent effect | Activity [24]: Active | inhibition [25]: Active | Activity [26]: Dose-dependent effect | Activity [27]: Active | Activity [28]: Dose-dependent effect | Activity [29]: Active | Activity [30]: Active

IC50 [1]: 58 nM
Structure (SMILES): COc1ccc(/C=C(\C)C(=O)c2cc(NC3CC3)nc3ccccc23)cc1O

IC50 [1]: 850 nM | IC50 [2]: 189 nM | IC50 [3]: 210 nM | IC50 [4]: 195 nM | IC50 [5]: 223 nM
Structure (SMILES): COc1ccc(/C=C/C(=O)c2cc(C)nc3ccccc23)cc1N

IC50 [1]: 120 nM
Structure (SMILES): CCOC(=O)c1cc(C(=O)/C(C)=C/c2ccc(OC)c(O)c2)c2ccccc2n1

IC50 [1]: 53 nM | IC50 [2]: 237 nM | IC50 [3]: 227 nM | IC50 [4]: 183 nM | IC50 [5]: 187 nM
Structure (SMILES): COc1ccc(/C=C(\C)C(=O)c2cc(Cl)nc3ccccc23)cc1O

IC50 [1]: > 1000 nM
Structure (SMILES): Cc1cc(C(=O)/C=C/c2cccc3[nH]ccc23)c2ccccc2n1

IC50 [1]: > 1000 nM
Structure (SMILES): COc1ccc2c(/C=C(\C)C(=O)c3cc(C)nc4ccccc34)c[nH]c2c1

IC50 [1]: 40 nM
Structure (SMILES): CCNc1cc(C(=O)/C(C)=C/c2ccc(OC)c(O)c2)c2ccccc2n1

IC50 [1]: 153 nM
Structure (SMILES): COc1ccc(/C=C(\C)C(=O)c2cc(N3CCOCC3)nc3ccccc23)cc1O

IC50 [1]: 1240 nM
Structure (SMILES): COc1ccc(/C=C(\C)C(=O)c2cc(=O)[nH]c3ccccc23)cc1O

IC50 [1]: > 1000 nM
Structure (SMILES): Cc1cc(C(=O)/C=C/c2ccc3[nH]ccc3c2)c2ccccc2n1

IC50 [1]: 127 nM | IC50 [2]: 123 nM | IC50 [3]: 137 nM | IC50 [4]: 112 nM | IC50 [5]: 121 nM
Structure (SMILES): COc1ccc(/C=C/C(=O)c2cc(C)nc3ccccc23)cc1O

IC50 [1]: 330 nM
Structure (SMILES): COc1ccc(CNc2cc(C(=O)/C(C)=C/c3ccc(OC)c(O)c3)c3ccccc3n2)cc1
